Holding throughout (assay type): cell-based
In one data set the test system is human STRA6. Description: STRA6 expression in WiDr cells (semi-quantitative PCR). The conditions noted are these: 100 nM RNAi oligo, 65 hrs. How it is done:
RNAi transfection and retinoic acid treatment of human WiDr colon adenocarcinoma cells: WiDr cells (American Type Culture Collection) were grown in Earle's balanced salt media with 10% FBS at 37° C. in a 95% air/5% CO2 humidified incubator. Human STRA6 RNAi oligo sequences were 5′-[…]-3′ (S-1) (SEQ ID NO:3), 5′-[…]-3′ (S-2) (SEQ ID NO:4); and 5′-[…]-3′ (S-3) (SEQ ID NO:5). Stealth™ negative control RNAi with medium GC (Invitrogen) was used for a negative control. WiDr cells were transfected with 100 nM RNAi oligos using DharmaFect1 (Dharmacon) according to the manufacture's protocol. WiDr Cells were split one day before RNAi transfection and cells were incubated with RNAi oligos for 65 hrs after transfection. Retinoic acid treatment was applied for 55 hours. RNA was isolated from WiDr cells using the RNeasy kit (Qiagen). Reverse transcription was performed with Invitrogen's SuperScriptIII First-Strand Synthesis System. Semi-Quantitative PCR was carried out for 24 cycles at 95° C. for 30 sec (denaturation), 63° C. for 30 sec (annealing), and 72° C. for 30 min (extension). cDNA synthesized from 40 ng of total RNA was used for each reaction. Primers used for PCR to detect human STRA6 were 5′-[…]-3′ (human STRA6 forward primer (SEQ ID NO:6)), 5′-[…]-3′ (human STRA6 reverse primer (SEQ ID NO:7)).

For data set [1], the system named is WiDr human colon adenocarcinoma cells. Description: Vitamin A uptake activity of WiDr cells from 3H-retinol/RBP. The following applies: 100 nM RNAi oligo, 65 hrs. How it is done: (§1) Production of ^3H-retinol loaded RBP and retinol uptake assay based on ^3H-retinol/RBP: Apo-RBP was prepared from holo-RBP as described (3). Radioactive retinol (15-^3H(N)-retinol) was purchased from American Radiolabeled Chemicals Inc. Ten micrograms apo-His-RBP was incubated with 150 pmol retinol (3 μCi) at 24° C. overnight. Radiolabeled holo-His-RBP was bound to Ni-NTA resin and the resin was washed extensively with 10 mM imidazole in PBS. Radiolabeled His-RBP was eluted with 100 mM imidazole in PBS. For the vitamin A uptake assay, transfected or untransfected cells grown on 12-well or 24-well cell culture plates were washed once with PBS and incubated with the ^3H-retinol/RBP diluted in SFM for various lengths of time. The reactions were stopped by washing the cells with PBS and solubilizing cells in 1% Triton X-100 in PBS. Radioactivity was measured with a scintillation counter.
Effects of metabolic inhibitors on vitamin A uptake and endocytosis: To test the effect of metabolic inhibitors, cells were pretreated with metabolic inhibitors in serum free medium (50 mM 2-deoxyglucose and 5 mM sodium azide) at 37° C. for 30 min before incubation with ^3H-retinol/RBP for 45 min at 37° C. in the continued presence of the metabolic inhibitors. The slight increase in activity for MI-treated cells as shown in FIGS. 4C and 4D is reproducible. Endocytosis assay based on horseradish peroxidase (HRP) was performed similarly as described. Cells (80-100% confluence) were washed once with PBS and then incubated in SFM with or without metabolic inhibitors for 30 min at 37° C. […]
RNAi transfection and retinoic acid treatment of human WiDr colon adenocarcinoma cells: WiDr cells (American Type Culture Collection) were grown in Earle's balanced salt media with 10% FBS at 37° C. in a 95% air/5% CO2 humidified incubator. […] Semi-Quantitative PCR was carried out for 24 cycles at 95° C. for 30 sec (denaturation), 63° C. for 30 sec (annealing), and 72° C. for 30 min (extension). cDNA synthesized from 40 ng of total RNA was used for each reaction. […]

For the next data set, the system named is bovine STRA6. In words: STRA6 expression in primary bovine RPE culture (semi-quantitative PCR). The following applies: 100 nM RNAi oligo, transfected twice, 72 h each. Here is the method:
Primary culture and RNAi transfection of bovine RPE cells: Primary cultures of RPE cells were derived from adult bovine eyes obtained from a local slaughterhouse. After the removal of vitreous and retina, the posterior half of the eye was incubated in 2% Dispase solution (Boehringer Mannheim) for 2 h. Sheets of RPE cells were then collected and washed with Hanks' Balanced salt solution (Irvine Scientific). The RPE cells were exposed to 0.05% Trypsin and 0.02% EDTA solution for 5 minutes at room temperature. The RPE cells were suspended in CEM replacement medium containing 10% calf serum and 1% penicillin-streptomycin as described previously (12), and the cells were then seeded at a density of 3×10^5 cells/cm^2 onto 12 mm millicell-PCF culture wells with a pore size of 0.45 um (Millipore Corp.). The RPE cells were maintained at 37° C. in a 5% CO2 incubator for 10 days before RNAi transfection. For RNAi transfection, bovine RPE cells were washed once with PBS and incubated in fresh DMEM/10% FBS media. Cells were transfected with 100 nM RNAi oligos (Stealth RNAi, Invitrogen) using DharmaFect1 according to manufacturer's protocol and incubated at 37° C. for 72 h. Cells were then transfected under the same conditions and incubated for another 72 h. RNAi oligo sequences used for this assay were 5′-[…]-3′ (S-4) (SEQ ID NO:8), 5′-[…]-3′ (S-5) (SEQ ID NO:9) and 5′-[…]-3′ (S-6) (SEQ ID NO:10). Semi-quantitative PCR was carried out for 26 cycles at 95° C. for 30 sec (denaturation), 60° C. for 30 sec (annealing), and 72° C. for 30 min (extension). cDNA synthesized from 32 ng of total RNA was used for each reaction. Primers used for PCR reaction to detect bovine STRA6 are 5′-[…]-3′ (forward primer (SEQ ID NO:11)), 5′-[…]-3′ (reverse primer (SEQ ID NO:12)).

In data set [2] the test system is primary bovine RPE culture. In words: Vitamin A uptake activity of primary bovine RPE culture from holo-RBP. The following applies: 100 nM RNAi oligo, transfected twice, 72 h each. Here is the method:
as §1
Primary culture and RNAi transfection of bovine RPE cells: Primary cultures of RPE cells were derived from adult bovine eyes obtained from a local slaughterhouse. After the removal of vitreous and retina, the posterior half of the eye was incubated in 2% Dispase solution (Boehringer Mannheim) for 2 h. Sheets of RPE cells were then collected and washed with Hanks' Balanced salt solution (Irvine Scientific). The RPE cells were exposed to 0.05% Trypsin and 0.02% EDTA solution for 5 minutes at room temperature. The RPE cells were suspended in CEM replacement medium containing 10% calf serum and 1% penicillin-streptomycin as described previously (12), and the cells were then seeded at a density of 3×10^5 cells/cm^2 onto 12 mm millicell-PCF culture wells with a pore size of 0.45 um (Millipore Corp.). The RPE cells were maintained at 37° C. in a 5% CO2 incubator for 10 days before RNAi transfection. […] Semi-quantitative PCR was carried out for 26 cycles at 95° C. for 30 sec (denaturation), 60° C. for 30 sec (annealing), and 72° C. for 30 min (extension). cDNA synthesized from 32 ng of total RNA was used for each reaction. […]

In the case of “S-1: Human STRA6 RNAi oligo 5′-UGAAGCUCAUCCAACAGAAUAUGGC-3′ (SEQ ID NO:3) (listed as RNA, chemistry not given here)”, the STRA6 expression result in the data set on human STRA6 is reported as “suppresses”. Also, the “Vitamin A uptake activity” value in data set [1] was “suppresses”.
Turning to “S-2: Human STRA6 RNAi oligo 5′-UAGAUGCAGUGUCUCAAGCAGACGC-3′ (SEQ ID NO:4) (listed as RNA, chemistry not given here)”, in the data set on human STRA6, the STRA6 expression entry is on record as “suppresses”. Further, the “Vitamin A uptake activity” value in data set [1] is on record as “suppresses”.
With “S-3: Human STRA6 RNAi oligo 5′-UGAGUAAGCAGGACAAGACCAAGGC-3′ (SEQ ID NO:5) (listed as RNA, chemistry not given here)”, the STRA6 expression entry in the data set with human STRA6 was “suppresses”. For the same substance, the “Vitamin A uptake activity” value in data set [1] was “suppresses”.
As for “S-4: Bovine STRA6 RNAi oligo 5′-CCGUCUACAUUCCACAACAAGGAUU-3′ (SEQ ID NO:8) (listed as RNA, chemistry not given here)”, the STRA6 expression result in the data set with bovine STRA6 is given as “suppresses”. In addition, in data set [2], the “Vitamin A uptake activity” value is “suppresses”.
Turning to “S-5: Bovine STRA6 RNAi oligo 5′-GGCUACCACACAUACUGCAACUUCU-3′ (SEQ ID NO:9) (listed as RNA, chemistry not given here)”, the STRA6 expression entry in the data set with bovine STRA6 is reported as “suppresses”. Also, the “Vitamin A uptake activity” value in data set [2] is given as “suppresses”.
On to “S-6: Bovine STRA6 RNAi oligo 5′-GAGGAUUCCUAUGACAGCUGGUACA-3′ (SEQ ID NO:10) (listed as RNA, chemistry not given here)”, for which the STRA6 expression entry with bovine STRA6 is “suppresses”. For the same substance, in data set [2], the “Vitamin A uptake activity” value is given as “suppresses”.

The record behind these values is patent US20090048196A1, “Membrane receptor for retinol binding protein mediates cellular uptake of vitamin A, methods of use and compositions” (THE REGENTS OF THE UNIVERSITY OF CALIFORNIA, priority 2007, published 2009).
